The assay addresses T1, human IL-17AA (Homo sapiens, UniProt Q16552).
T1 construct: host or cells: HEK (human embryonic kidney) cells
T1 sequence (Q16552 24-155): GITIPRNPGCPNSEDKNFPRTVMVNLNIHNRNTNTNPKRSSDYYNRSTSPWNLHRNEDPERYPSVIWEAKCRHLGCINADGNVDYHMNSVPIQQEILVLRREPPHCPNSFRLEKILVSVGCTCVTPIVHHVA
The experiment in a line: IL-8 release assay in human epithelial keratinocytes adult (HEKa). In kind it is cell-based. As to conditions: HEKa cells, 3 ng/mL HEK-human IL-17AA + 10 ng/mL human TNFalpha; read-out: Rel EC50 IL-8 release assay. The procedure, abridged:
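Adult human epidermal keratinocytes stimulated 68-72 h at 37 °C with 3 ng/mL HEK-derived human IL-17AA plus 10 ng/mL TNF-alpha (final) in the presence of compound; TNF-alpha alone defines 100% inhibition. Secreted IL-8 measured by HTRF as percent of controls; relative IC50/Emax from four-parameter fit (r^2>0.9), cytotoxicity by PrestoBlue.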

Bounds are passed on as bounds.

The results in this text go back to patent publication US11377425B1, “Small molecule modulators of IL-17” (LEO Pharma A/S, priority 2018, dated 2022).

As usually defined, the EC50 is the concentration at which the effect is half-maximal. `Cc1n[nH]c(C)c1-c1ccc(NC(=O)[C@@H](NC(=O)c2ccnn2C(C)C)[C@@H]2CC(C)(C)CCC2(F)F)cc1` [Example 212, N-[(1S)-1-[(1S)-2,2-difluoro-5,5-dimethyl-cyclohexyl]-2-[4-(3,5-dimethyl-1H-pyrazol-4-yl)anilino]-2-oxo-ethyl]-2-isopropyl-pyrazole-3-carboxamide]: the EC50 was less than 100 nM. In the case of `Cc1n[nH]c(N(C)C)c1-c1ccc(NC(=O)[C@@H](NC(=O)c2ccnn2C)C2CCCCC2)cc1` [Example 453, N-[(1S)-1-cyclohexyl-2-[4-[3-(dimethylamino)-5-methyl-1H-pyrazol-4-yl]anilino]-2-oxo-ethyl]-2-methyl-pyrazole-3-carboxamide], the EC50 was in the range of 100 to 1000 nM. Under `Cc1n[nH]c(C)c1-c1ccc(NC(=O)[C@@H](NC(=O)c2ccnn2CC(F)(F)F)C2CCCCC2)cc1` [Example 29] stands 100 to 1000 nM; under `Cn1cncc1-c1ccc(NC(=O)[C@@H](NC(=O)c2ccnn2C)C(c2ccccc2)c2ccccc2)cc1` [Example 346, N-[(1S)-1-benzhydryl-2-[4-(3-methylimidazol-4-yl)anilino]-2-oxo-ethyl]-2-methyl-pyrazole-3-carboxamide], 100 to 1000 nM; under `Cc1n[nH]c(C)c1-c1ccc(NC(=O)[C@@H](NC(=O)c2ccnn2C(C)CO)C(C)C(C)(C)C)cc1` (single isomer, unassigned) [Example 175], 100 to 1000 nM. Turning to `Cc1n[nH]c(C)c1-c1ccc(NC(=O)[C@@H](NC(=O)c2ccnn2C(C)C#N)C(C2CC2)C2CC2)cc1` (stereo partly drawn) [Example 171, 2-(1-cyanoethyl)-N-[(1S)-1-(dicyclopropylmethyl)-2-[4-(3,5-dimethyl-1H-pyrazol-4-yl)anilino]-2-oxo-ethyl]pyrazole-3-carboxamide], the EC50 was more than 1000 nM. The result for `Cc1n[nH]c(C)c1-c1ccc(NC(=O)[C@@H](NC(=O)c2ccnn2C)C(C2CC2)C2CC2)cc1` [Example 117, N-[(1S)-1-(dicyclopropylmethyl)-2-[4-(3,5-dimethyl-1H-pyrazol-4-yl)anilino]-2-oxo-ethyl]-2-methyl-pyrazole-3-carboxamide] reads less than 100 nM. Under `Cc1n[nH]c(C)c1-c1ccc(NC(=O)[C@@H](NC(=O)c2ccnn2C)[C@H]2CCc3ccccc32)cc1` [Example 79, N-[(1S)-2-[4-(3,5-dimethyl-1H-pyrazol-4-yl)anilino]-1-[(1S)-indan-1-yl]-2-oxo-ethyl]-2-methyl-pyrazole-3-carboxamide] stands less than 100 nM. Under `Cc1n[nH]c(C)c1-c1ccc(NC(=O)[C@@H](NC(=O)c2ccnn2C(C)C)[C@H]2CCOc3ccc(F)cc32)cc1` [Example 289, N-[(1S)-2-[4-(3,5-dimethyl-1H-pyrazol-4-N yl)anilino]-1-[(4S)-6-fluorochroman-4-yl]-2-oxo-ethyl]-2-isopropyl-pyrazole-3-carboxamide] stands less than 100 nM; under `Cc1n[nH]c(C)c1-c1ccc(NC(=O)[C@H](Cc2ccccc2)NC(=O)c2ccnn2C)cc1` [Example 44, N-[(1S)-1-benzyl-2[4-(3,5-dimethyl-1H-pyrazol-4-yl)anilino]-2-oxo-ethyl]-2-methyl-pyrazole-3-carboxamide], more than 1000 nM; under `CC(C)n1nccc1C(=O)N[C@H](C(=O)Nc1ccc(-c2nncn2C)cc1)C1CCCCC1` [Example 351, N-[(1S)-1-cyclohexyl-2-[4-(4-methyl-1,2,4-triazol-3-yl)anilino]-2-oxo-ethyl]-2-isopropyl-pyrazole-3-carboxamide], 100 to 1000 nM.

With `Cc1n[nH]c(C)c1-c1ccc(NC(=O)[C@@H](NC(=O)O[C@@H](C)CC[C@H](C)O)C(C2CC2)C2CC2)cc1` [Example 481, [(1S,4S)-4-hydroxy-1-methyl-pentyl] N-[(1S)-1-(dicyclopropylmethyl)-2-[4-(3,5-dimethyl-1H-pyrazol-4-yl)anilino]-2-oxo-ethyl]carbamate], the EC50 was more than 1000 nM. Under `CC(C)n1nccc1C(=O)N[C@H](C(=O)Nc1ccc(-c2c(CO)ncn2C)cc1)C(C1CC1)C1CC1` [Example 406, N-[(1S)-1-(dicyclopropylmethyl)-2-[4-[5-(hydroxymethyl)-3-methyl-imidazol-4-yl]anilino]-2-oxo-ethyl]-2-isopropyl-pyrazole-3-carboxamide] stands 100 to 1000 nM. The result for `Cc1n[nH]c(C)c1-c1ccc(NC(=O)[C@@H](NC(=O)c2ccn(C)n2)C(C2CC2)C2CC2)cc1` [Example 198, N-[(1S)-1-(dicyclopropylmethyl)-2-[4-(3,5-dimethyl-1H-pyrazol-4-yl)anilino]-2-oxo-ethyl]-1-methyl-pyrazole-3-carboxamide] reads more than 1000 nM. The result for `Cc1n[nH]c(C)c1-c1ccc(NC(=O)[C@@H](NC(=O)c2ccnn2C(C)CO)C(C)C(C)(C)C)cc1` (single isomer, unassigned) [Example 178] reads less than 100 nM; that for `Cc1n[nH]c(C)c1-c1ccc(NC(=O)[C@@H](NC(=O)C2(F)CC2)C2CCCCC2)cc1` [Example 66, N-[(1S)-1-cyclohexyl-2-[4-(3,5-dimethyl-1H-pyrazol-4-yl)anilino]-2-oxo-ethyl]-1-fluoro-cyclopropanecarboxamide], 100 to 1000 nM; that for `Cc1n[nH]c(C)c1-c1ccc(NC(=O)[C@@H](NC(=O)N2CCCCC2)C2CCCCC2)cc1` [Example 472, N-[(1S)-1-cyclohexyl-2-[4-(3,5-dimethyl-1H-pyrazol-4-yl)anilino]-2-oxo-ethyl]piperidine-1-carboxamide], more than 1000 nM. For the molecule `Cc1n[nH]c(C)c1-c1ccc(NC(=O)[C@@H](NC(=O)c2ccnn2C)C2C[C@@H](C)C[C@@H](C)C2)cc1` (stereo partly drawn) [Example 147, N-[(1S)-1-[(3R,5S)-3,5-dimethylcyclohexyl]-2-[4-(3,5-dimethyl-1H-pyrazol-4-yl)anilino]-2-oxo-ethyl]-2-methyl-pyrazole-3-carboxamide], the EC50 was less than 100 nM. The result for `Cc1n[nH]c(C)c1-c1ccc(NC(=O)[C@@H](NC(=O)c2ccnn2C(C)C)C2CCC(F)(F)CC2)cc1` [Example 12, N-[(1S)-1-(4,4-difluorocyclohexyl)-2-[4-(3,5-dimethyl-1H-pyrazol-4-yl)anilino]-2-oxo-ethyl]-2-isopropyl-pyrazole-3-carboxamide] reads less than 100 nM; that for `Cc1n[nH]c(C)c1-c1ccc(NC(=O)[C@@H](NC(=O)c2ccnn2C(C)C)C(C2CC2)C2CC2)cc1O` [Example 410, N-[(1S)-1-(Dicyclopropylmethyl)-2-[4-(3,5-dimethyl-1H-pyrazol-4-yl)-3-hydroxy-anilino]-2-oxo-ethyl]-2-isopropyl-pyrazole-3-carboxamide], less than 100 nM.

As to `Cc1n[nH]c(C)c1-c1ccc(NC(=O)[C@@H](NC(=O)c2ccnn2CCN(C)C)C(C2CC2)C2CC2)cc1` [Example 131, N-[(1S)-1-(dicyclopropylmethyl)-2-[4-(3,5-dimethyl-1H-pyrazol-4-yl)anilino]-2-oxo-ethyl]-2-(2-dimethylaminoethyl) pyrazole-3-carboxamide], the EC50 lay within 100 to 1000 nM.

In the case of `Cc1n[nH]c(C)c1-c1ccc(NC(=O)C(NC(=O)c2ccnn2C)[C@H]2CCCc3c(F)cc(F)cc32)cc1` (single isomer, unassigned) [Example 255], the EC50 was less than 100 nM. The result for `Cc1[nH]nc(C2CC2)c1-c1ccc(NC(=O)[C@@H](NC(=O)c2ccnn2[C@@H](C)CO)C(C2CC2)C2CC2)cc1` [Example 389, N-[(1S)-2,2-dicyclopropyl-1-[[4-(3-cyclopropyl-5-methyl-1H-pyrazol-4-yl)phenyl]carbamoyl]ethyl]-2-[(1S)-2-hydroxy-1-methyl-ethyl]pyrazole-3-carboxamide] reads less than 100 nM; that for `Cc1cnn(C)c1-c1ccc(NC(=O)[C@@H](NC(=O)c2ccnn2C(C)C)C(C2CC2)C2CC2)cc1` [Example 367, N-[(1S)-1-(dicyclopropylmethyl)-2-[4-(2,4-dimethylpyrazol-3-yl)anilino]-2-oxo-ethyl]-2-isopropyl-pyrazole-3-carboxamide], less than 100 nM; that for `Cc1n[nH]c(C)c1-c1ccc(NC(=O)[C@@H](NC(=O)c2cnn3ncccc23)C2CCCCC2)cc1` [Example 70, N-[(1S)-1-cyclohexyl-2-[4-(3,5-dimethyl-1H-pyrazol-4-yl)anilino]-2-oxo-ethyl]pyrazolo[1,5-b]pyridazine-3-carboxamide], 100 to 1000 nM. Under `Cc1n[nH]c(C)c1-c1ccc(NC(=O)[C@@H](NC(=O)c2ccn[nH]2)C(C2CC2)C2CC2)cc1` [Example 216, N-[(1S)-1-(dicyclopropylmethyl)-2-[4-(3,5-dimethyl-1H-pyrazol-4-yl)anilino]-2-oxo-ethyl]-1H-pyrazole-5-carboxamide] stands 100 to 1000 nM; under `Cn1cncc1-c1ccc(NC(=O)[C@@H](NC(=O)c2ccnn2C)[C@H]2CCc3ccc(Br)cc32)cc1` [Example 341, N-[(1S)-1-[(1S)-6-bromoindan-1-yl]-2-[4-(3-methylimidazol-4-yl)anilino]-2-oxo-ethyl]-2-methyl-pyrazole-3-carboxamide], 100 to 1000 nM. The result for `Cc1n[nH]c(C)c1-c1ccc(NC(=O)[C@@H](NC(=O)N(C)CCCO)C2CCCCC2)cc1` [Example 459, (2S)-2-cyclohexyl-N-[4-(3,5-dimethyl-1H-pyrazol-4-yl)phenyl]-2-[[3-hydroxypropyl(methyl)carbamoyl]amino]acetamide] reads more than 1000 nM. As for `Cc1ncn(C)c1-c1ccc(NC(=O)C(NC(=O)c2ccnn2C)C2CCC(F)(F)CC2)cc1` (single isomer, unassigned) [Example 333, N-[1-(4,4-difluorocyclohexyl)-2-[4-(3,5-dimethylimidazol-4-yl)anilino]-2-oxo-ethyl]-2-methyl-pyrazole-3-carboxamide], the EC50 is more than 1000 nM.
